Laboratory results published in ChEMBL document CHEMBL3867484, “3D-QSAR studies of 3-(3,4-dihydroisoquinolin-2(1H)-ylsulfonyl)benzoic acids as AKR1C3 inhibitors: Highlight the importance of molecular docking in conformation generation” (Bioorg Med Chem Lett, 2016).

Each molecule was assayed against T1, Aldo-keto reductase family 1 member C3 (Homo sapiens, UniProt P42330) (assay: Inhibition of human recombinant His-tagged AKR1C3 expressed in Escherichia coli BL21 (DE3) cells using 8-Acetyl-2,3,5,6-tetrahydro-1H,4H-11-oxa-3a-aza-benzo[de]anthracen-10-one as substrate after 1 hr in presence of NADPH by fluorescence assay). Conditions: read-out: IC50.
T1 sequence (P42330 whole entry): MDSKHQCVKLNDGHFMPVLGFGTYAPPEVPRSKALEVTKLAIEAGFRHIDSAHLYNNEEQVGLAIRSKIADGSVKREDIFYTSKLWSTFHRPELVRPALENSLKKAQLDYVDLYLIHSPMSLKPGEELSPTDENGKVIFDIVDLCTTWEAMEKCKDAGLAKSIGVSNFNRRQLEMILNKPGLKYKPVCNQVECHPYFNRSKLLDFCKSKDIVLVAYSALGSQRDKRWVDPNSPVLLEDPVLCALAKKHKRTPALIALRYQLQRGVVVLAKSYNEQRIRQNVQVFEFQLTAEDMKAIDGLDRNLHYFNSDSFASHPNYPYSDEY
For `O=C(NN1CCSCC1)c1cccc(S(=O)(=O)N2CCc3ccccc3C2)c1`, the IC50 was 450 nM.
Molecule `CN1CC(c2ccc(S(=O)(=O)N3CCc4ccccc4C3)cc2)CC1=O` (stereo not drawn) has an IC50 of 42 nM.
With `O=C(O)c1cccc(S(=O)(=O)N2CCc3ccc(C#Cc4ccc(C(F)(F)F)cc4)cc3C2)c1` the IC50 was 1310 nM.
For `O=C(NN1CCOCC1)c1cccc(S(=O)(=O)N2CCc3ccccc3C2)c1`, the IC50 was 78 nM.
Molecule `O=C(O)c1cccc(S(=O)(=O)C2CCc3sccc3C2)c1` (stereo not drawn) has an IC50 of 25 nM.
In the case of `O=C(O)c1cccc(S(=O)(=O)C2CC=CCC2)c1` (stereo not drawn), the IC50 is reported as 390 nM.

Same assay, conditions: read-out: pIC50 (converted)
For `O=C(O)[C@@H]1CCCN(S(=O)(=O)c2ccc3ccccc3c2)C1`, the IC50 was 31.6 nM.
`O=C(O)c1cccc(S(=O)(=O)N2CCc3cc(Br)ccc3C2)c1` showed an IC50 of 6.03 nM.
